Data: ChEMBL document CHEMBL3822369, “Structure-Based Design of an in Vivo Active Selective BRD9 Inhibitor” (J Med Chem, 2016)

Legend:
[1] = Oral bioavailability in BomTac:NMRI-Foxn1nu mouse at 20 mg/kg, administered as suspension; type: ADME, organism-based; details: in vivo
[2] = Aqueous solubility of the compound at pH 6.8 by UPLC/UV method; type: physicochemical; details: buffer
Mus musculus [3] = test: (§1) Oral bioavailability in BomTac:NMRI-Foxn1nu mouse at 180 mg/kg, administered as suspension; type: ADME, organism-based; details: in vivo
[4] = Cmax in BomTac:NMRI-Foxn1nu mouse at 180 mg/kg, po administered as suspension; type: ADME, organism-based; set-up: dose 180 mg/kg, route oral; details: in vivo
[5] = Volume of distribution at steady state in BomTac:NMRI-Foxn1nu mouse plasma at 5 mg/kg, iv administered as bolus; type: ADME, organism-based; details: read-out: Vdss
[6] = Cmax in BomTac:NMRI-Foxn1nu mouse at 20 mg/kg, po administered as suspension; type: ADME, organism-based; set-up: dose 20 mg/kg, route oral; details: in vivo
[7] = AUC (0 to last) in BomTac:NMRI-Foxn1nu mouse at 20 mg/kg, po administered as suspension; type: ADME, organism-based; set-up: dose 20 mg/kg, time 0 - last, route oral; details: in vivo
[8] = AUC (0 to last) in BomTac:NMRI-Foxn1nu mouse at 180 mg/kg, po administered as suspension; type: ADME, organism-based; set-up: dose 180 mg/kg, time 0 - last, route oral; details: in vivo
[9] = Apparent permeability in human Caco2 cells across apical side to basolateral side at 10 uM by LC-MS/MS analysis; type: ADME, cell-based; details: Caco-2
Mus musculus [10] = test: AUC (0 to last) in plasma of CIEA-NOG mouse xenografted with human EOL-1 cells at 180 mg/kg, po administered qd for day 5 to 17 and day 20 to 22 post tumor transplantation; type: ADME, organism-based, EOL1; set-up: dose 180 mg/kg, time 0 - last, route oral; details: in vivo
Mus musculus [11] = test: Clearance in BomTac:NMRI-Foxn1nu mouse plasma at 5 mg/kg, iv administered as bolus; type: ADME, organism-based; details: in vivo
[12] = as §1; type: ADME, organism-based; details: BomTac:NMRI-Foxn1nu, in vivo

Row | SMILES | bioavailability [1] [%] | solubility [2] [µg/mL] | F (Mus musculus [3]) [%] | Cmax [4] [µM] | Vd [5] [L/kg] | Cmax [6] [µM] | AUC(0-t) [7] [µM·h] | AUC(0-t) [8] [µM·h] | Papp A→B at 10 µM [9] [×10⁻⁶ cm/s] | AUClast (Mus musculus [10]) [µM·h] | CL (Mus musculus [11]) [%] | bioavailability [12] [%]
1 | COc1cc(-c2cn(C)c(=O)c3cnccc23)c(OC)cc1CN(C)C | 88 | > 90 | 151 | 35 | 2.1 | 5.4 | 15 | 226 | 11 | 268 | 65 | 
2 | COc1cc(-c2cn(C)c(=O)c3cnccc23)cc(OC)c1CN(C)C | 39 | > 91 |  | 25 | 1.6 | 3 | 7.5 | 108 | 1.4 |  | 57 | 64
